IC50 data for three compounds are collected here from BindingDB's records for patent US11884682 (Nanjing Immunophage Biotech Co., 2024).

SMILES strings stand for the structures.

For this assay, the target named is T1, Macrophage migration inhibitory factor (Homo sapiens, UniProt P14174).
T1 sequence (P14174 whole entry): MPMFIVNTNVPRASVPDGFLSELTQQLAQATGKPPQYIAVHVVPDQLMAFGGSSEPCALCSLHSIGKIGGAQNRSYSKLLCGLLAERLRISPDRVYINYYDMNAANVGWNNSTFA
In words: MIF Enzymatic Assay. Here is the method:
Assays were performed in small-volume clear-bottom black 96 or 384-well polystyrene plates (Greiner Bio-One). First, 2 μL of the enzyme solution containing 6 nM of MIF in DPBS, 0.025% w/v BSA, and 300 μM CHAPS was dispensed onto sample and negative control wells using Multidrop Combi with metallic tip cassettes (Thermo Fisher Scientific) previously treated with Sigmacote. Then, 2 μL of the same buffer without MIF was dispensed onto positive control wells. […] In order to remove bubbles, the plate was centrifuged in an Allegra 25R centrifuge (Beckman Coulter, Inc., Brea, CA) at 1000 rpm for 2 min at room temperature. Then, the plate was read in an EnVision. Final concentrations of enzyme and substrate were 3 nM and 1.5 mM, respectively. Initial rates were calculated for each well as the slope of the absorbance progress curve.
Regarding `COc1cc(N2CCC(O)C2)ccc1C(=O)NCc1nnc(-c2cccs2)o1` (stereo not drawn) [US11884682, Compound 78], the midpoint of inhibition, the IC50, lay at 575 nM.

As to `COc1cc(NCCO)ccc1C(=O)NCc1nnc(-c2cccs2)o1` [US11884682, Compound 79], the half-inhibitory concentration (IC50) was found to be 708 nM. This IC50 and that of the compound before are within 1.5-fold of each other.

Consider `COc1cc(OC2CCNC2)ccc1C(=O)NCc1nnc(-c2cccs2)o1` (stereo not drawn) [US11884682, Compound 81], for which the IC50 turned out to be 2510 nM.
